Active and inactive are the calls of the source. No rule for the calls is given here.

In the assay the target is Serine/threonine-protein kinase mTOR (Homo sapiens) (UniProt P42345). Kind of assay: binders of mTOR FRB domain, biophysical, NMR (AID 1648). Particulars: NMR binding to FRB domain, chemical shift.
Serine/threonine-protein kinase mTOR (Homo sapiens), sequence (P42345 2015-2114): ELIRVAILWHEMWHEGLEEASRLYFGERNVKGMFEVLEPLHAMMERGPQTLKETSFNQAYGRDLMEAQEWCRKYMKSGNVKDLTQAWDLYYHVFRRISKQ
What is called Kd is the equilibrium constant for the complex coming apart. Take `O=C(O)CCC(=O)Nc1nnc(C(F)(F)F)s1`: the Kd was > 4 mM (inactive).

`O=C(Nc1ccc(Cl)cn1)c1cnn2cccnc12`: the Kd was > 4 mM (inactive).

Regarding `CC(=O)Nc1ccc(Oc2nc(C)cc(C)n2)cc1`, the Kd was > 4 mM (inactive).

Regarding `O=C1CCNc2ccccc2N1`, the Kd was > 4 mM (inactive).

`CSc1ccc(S(=O)(=O)N2CCCC2)cc1`: the Kd was > 4 mM (inactive).

With `CC(=O)c1cc2c(cc1O)OC(C)(C)C=C2`, the Kd was > 4 mM (inactive).

Take `CC(C)CCCC1(C)C=Cc2c(O)c3c(c(CCC(C)C)c2O1)OC12C(CC4CC1C(C)(C)OC2(CCC(C)C(=O)O)C4O)C3=O` (configuration not stated): the Kd was > 4 mM (inactive).

On to `NCc1ccc(-c2cccs2)s1`, for which the Kd is > 4 mM (inactive).

Consider `O=c1cc(-c2ccccc2)oc2cc(O)c(O)c(O)c12`, for which the Kd is > 4 mM (inactive).

With `CC(=O)O[C@H]1CC[C@@]2(C)C(=CC(=O)C3C4CCC(C(C)CCCC(C)C)[C@@]4(C)CCC32)C1` (some centres not stated), the Kd is > 4 mM (inactive).

Turning to `Nc1nc(-c2ccc(Cl)cc2)nn1C(=O)c1cccnc1`, the Kd was > 4 mM (inactive).

Turning to `CC(=O)c1ccc(NC(=S)N2CCC(O)CC2)cc1`, the Kd was > 4 mM (inactive).

Regarding `Nc1nnc(SCc2ccccc2Cl)s1`, the Kd was > 4 mM (inactive).

Turning to `CSc1ccc2nnc(-c3cccnc3)n2n1`, the Kd was > 4 mM (inactive).

`O=S(=O)(Nc1cccc2cn[nH]c12)c1ccc(F)cc1`: the Kd was > 4 mM (inactive).

`CCC(=O)Nc1ccc(-c2nn3c(C)nnc3s2)cc1`: the Kd was > 4 mM (inactive).

On to `CC(=O)Nc1nnc(-c2ccccc2)o1`, for which the Kd is > 4 mM (inactive).

In the case of `COC(=O)c1sc(N)nc1C`, the Kd was > 4 mM (inactive).

With `COc1cc2nc(N3CCNCC3)nc(N)c2cc1OC`, the Kd was > 4 mM (inactive).

For `CNC(=O)c1cccc(NC(=S)NC)c1`, the Kd is > 4 mM (inactive).

`Cc1nnc(SCc2ccon2)n1-c1ccccc1`: the Kd is > 4 mM (inactive).

With `Cc1cc(C(=O)N2CCN(c3ccccn3)CC2)no1`, the Kd is > 4 mM (inactive).

In the case of `CC1=C(C(N)=O)C(c2ccccc2)NC(=O)N1` (configuration not stated), the Kd is > 4 mM (inactive).

Consider `O=C(c1cnsn1)N1CCN(c2ccccc2)CC1`, for which the Kd is > 4 mM (inactive).

Take `OC1CSc2ncnn2C1` (configuration not stated): the Kd was > 4 mM (inactive).

As for `CC(=O)c1cnc(Nc2nc(C)c3ccccc3n2)nc1C`, the Kd is > 4 mM (inactive).

`NC(=O)c1cc(N)ccc1N1CCCCC1`: the Kd is > 4 mM (inactive).

As to `CC1(C)C(=O)C=C[C@@]2(C)C1C[C@@H](O)[C@]1(C)C2CC[C@@]2(C)[C@H](c3ccoc3)OC(=O)[C@H]3O[C@]321` (some centres not stated), the Kd is > 4 mM (inactive).

For the molecule `O=C(NCc1ccco1)c1cccc(F)c1`, the Kd was > 4 mM (inactive).

In the case of `O=C1CC(c2c[nH]c3ccccc23)C(=O)N1` (configuration not stated), the Kd is > 4 mM (inactive).

Take `O=C(/C=C/c1ccccc1)c1ccc(O[C@@H]2O[C@H](CO)[C@@H](O)[C@H](O)[C@H]2O)cc1O`: the Kd was > 4 mM (inactive).

As for `COc1ccc(C(C)=O)c(O)c1`, the Kd is > 4 mM (inactive).

For the molecule `CC(=O)Oc1ccccc1N1C(=O)C=CC1=O`, the Kd is > 4 mM (inactive).

As to `NC(=O)c1ccc(N2C(=O)CCC2=O)cc1Cl`, the Kd is > 4 mM (inactive).

Turning to `Nc1ccc(F)cc1F`, the Kd is > 4 mM (inactive).

For `O=C(O)C1CC(=O)N(Cc2cccs2)C1` (configuration not stated), the Kd is > 4 mM (inactive).

For the molecule `O=C(O)CCS(=O)(=O)c1ccccc1`, the Kd was > 4 mM (inactive).

`CC(=O)NC(=S)Nc1ccccc1C`: the Kd was > 4 mM (inactive).

On to `Cn1c(SCC(N)=O)nnc1-c1cccnc1`, for which the Kd is > 4 mM (inactive).

With `CC(NC(=O)c1ccco1)c1ccc2c(c1)OCCO2` (configuration not stated), the Kd is > 4 mM (inactive).

`NCc1ccc(-n2cccc2)cc1`: the Kd was > 4 mM (inactive).

`O=C(O)CCCc1nc2ccccc2s1`: the Kd is > 4 mM (inactive).

For the molecule `CC[C@H](/C=C/C(C)C1CCC2C3CCC4=CC(=O)CC[C@]4(C)C3CC[C@]12C)C(C)C` (some centres not stated), the Kd is > 4 mM (inactive).

For the molecule `Cc1nnc2sc(-c3csc4c3CCCC4)nn12`, the Kd was > 4 mM (inactive).

As to `O=C(NCc1ccccn1)c1ccc(Br)s1`, the Kd was > 4 mM (inactive).

Take `COC(=O)CSc1ncnc2c(C)csc12`: the Kd is > 4 mM (inactive).

Turning to `NCC1CN(Cc2ccccc2)CCO1` (configuration not stated), the Kd was > 4 mM (inactive).

With `CC1(C)CC2(CCO1)NCCN1C(=O)CSC12` (configuration not stated), the Kd is > 4 mM (inactive).

`CCOC(=O)Cc1nc2ccccc2[nH]1`: the Kd was > 4 mM (inactive).

With `COc1cc2c(cc1OC)[C@@H]1C(=O)c3ccc(O)c(CC=C(C)C)c3O[C@@H]1CO2`, the Kd is > 4 mM (inactive).

As to `CCOC(=O)c1nc2ccccc2c(=O)n1N`, the Kd was > 4 mM (inactive).

Regarding `CC(=O)Nc1cc(O)cc(O)c1`, the Kd was > 4 mM (inactive).

Take `CC(=O)c1cc(C(N)=O)c(=S)[nH]c1C`: the Kd was > 4 mM (inactive).

As to `Cc1[nH]ccc2c1[nH]c1cc(=O)ccc12`, the Kd was > 4 mM (inactive).

Consider `Cc1nn2c(=O)c(NC(=O)c3ccccc3)cnc2s1`, for which the Kd was > 4 mM (inactive).

Consider `NC(=O)Cn1nnc(-c2ccc(C(F)(F)F)cc2)n1`, for which the Kd was > 4 mM (inactive).

As for `Cn1cccc1C(=O)NS(=O)(=O)c1ccccc1Cl`, the Kd is > 4 mM (inactive).

`C#CCCCCCCCCCCCc1ccco1`: the Kd was > 4 mM (inactive).

As for `CC(=O)NC(=S)Nc1ccccc1N1CCOCC1`, the Kd was > 4 mM (inactive).

On to `NC(=O)CS(=O)(=O)c1ccc(Cl)cc1`, for which the Kd is > 4 mM (inactive).

With `c1ccc2c(NC3=NCCS3)cccc2c1`, the Kd was > 4 mM (inactive).

On to `O=C(O)CC12CC3CC(CC(O)(C3)C1)C2`, for which the Kd is > 4 mM (inactive).

With `Cc1ccc(C)n1NC(=O)c1ccco1`, the Kd was > 4 mM (inactive).

As to `CC12CCCC(O)(C1)C1CC(C)(C)C1CC2` (configuration not stated), the Kd is > 4 mM (inactive).

For `OCCNc1ccccn1`, the Kd is > 4 mM (inactive).

With `CN1CCC(N2CCOCC2)CC1`, the Kd is > 4 mM (inactive).

Regarding `Nc1ccc2c(c1)S(=O)(=O)C=C2`, the Kd was > 4 mM (inactive).

Consider `COc1ccccc1/C=C\C(=O)O`, for which the Kd is > 4 mM (inactive).

As for `OC1COCc2nc3ccccc3n2C1` (configuration not stated), the Kd was > 4 mM (inactive).

`COc1ccc(-c2cc(=O)c3c(O)cc(O)c(-c4cc(-c5cc(=O)c6c(O)cc(O)cc6o5)ccc4OC)c3o2)cc1`: the Kd is > 4 mM (inactive).

For the molecule `COc1cc(C)c(S(=O)(=O)N2CCN(C)CC2)cc1C`, the Kd is > 4 mM (inactive).

With `CSc1ccccc1C(=O)N1CCOCC1`, the Kd was > 4 mM (inactive).

Consider `COc1ccc(CC(=O)c2ccc(O)cc2O)cc1`, for which the Kd is > 4 mM (inactive).

Regarding `COC(=O)[C@]1(C)CC[C@]2(C)CC[C@]3(C)C4=CCc5c(cc(O)c(O)c5C)[C@]4(C)CC[C@@]3(C)C2C1` (some centres not stated), the Kd is > 4 mM (inactive).

Take `O=C(O)CCC(=O)Nc1ccccn1`: the Kd was > 4 mM (inactive).

As to `CC(=O)N(C)Cc1nc2ccccc2n1C`, the Kd is > 4 mM (inactive).

Consider `O=C1CCN(c2ccccc2)N1`, for which the Kd is > 4 mM (inactive).

As to `O=C(O[C@@H]1Cc2c(O)cc(O)cc2O[C@@H]1c1cc(=O)c(O)c2c(O)c(O)cc([C@H]3Oc4cc(O)cc(O)c4C[C@H]3O)c2c1)c1cc(O)c(O)c(O)c1`, the Kd is > 4 mM (inactive).

For `Clc1ccccc1OCc1nc(-c2ccncc2)no1`, the Kd is > 4 mM (inactive).

As for `Cc1cc(N)on1`, the Kd was > 4 mM (inactive).

In the case of `Cc1cc(Oc2ccccc2)nc(N)n1`, the Kd was > 4 mM (inactive).

Take `O=c1cc(CO)oc(CN2CCCCC2)c1O`: the Kd is > 4 mM (inactive).

Take `N#Cc1ccccc1CSc1ccccn1`: the Kd was > 4 mM (inactive).

With `Cc1cc(O)c(C)c(O)c1C(=O)O`, the Kd was > 4 mM (inactive).

With `COc1ccc(-c2nc3nc(C)cc(C)n3n2)cc1`, the Kd is > 4 mM (inactive).

With `CC(C)(C)c1cc(CN)c(C(=O)O)o1`, the Kd is > 4 mM (inactive).

As for `COc1ccc2c(c1)OC/C(=C/c1ccc(O)c(O)c1)C2=O`, the Kd was > 4 mM (inactive).

For the molecule `Nc1cc(N)nc(SCc2ccccc2)n1`, the Kd was > 4 mM (inactive).

On to `CC(C)c1nnc(N)s1`, for which the Kd was > 4 mM (inactive).

Take `S=C(Cc1cccnc1)N1CCOCC1`: the Kd is > 4 mM (inactive).

With `Cc1csc2nc(=O)c3ccccc3n12`, the Kd was > 4 mM (inactive).

As to `O=C(O)C1CCN(C(=O)c2cccs2)CC1`, the Kd is > 4 mM (inactive).

Regarding `CC(=O)OC[C@H]1O[C@@H](Oc2cc(OC(C)=O)c3c(=O)cc(-c4ccc(OC(C)=O)cc4)oc3c2)[C@H](OC(C)=O)[C@@H](OC(C)=O)[C@@H]1OC(C)=O`, the Kd was > 4 mM (inactive).

`CC(=O)O[C@@H]1CC2C(C)(C)[C@H](O)C[C@H](O)[C@]2(C)C2CC[C@@]3(C)C(=CC(=O)O[C@H]3c3ccoc3)[C@@]21C` (some centres not stated): the Kd is > 4 mM (inactive).

As to `CC(=O)c1cc(C)ccc1OC(=O)c1cccnc1`, the Kd is > 4 mM (inactive).

As for `O=C(O)CNS(=O)(=O)c1cccs1`, the Kd was > 4 mM (inactive).

On to `CC(C)c1ccc2c(c1)CCC1C(C)(C(N)=O)CCCC21C` (configuration not stated), for which the Kd was > 4 mM (inactive).

In the case of `CS(=O)(=O)CCCCN=C=S`, the Kd is > 4 mM (inactive).

On to `CCCc1cc2c(c(NC(C)=O)n1)c(=O)oc1ccccc12`, for which the Kd is > 4 mM (inactive).

`CC(C)C(=O)NCC(c1ccco1)N1CCOCC1` (configuration not stated): the Kd is > 4 mM (inactive).

As to `NC(=O)CSc1nc2ncnc(N)c2[nH]1`, the Kd was > 4 mM (inactive).

Turning to `COC(=O)CSc1nc(N)cc(=O)[nH]1`, the Kd is > 4 mM (inactive).

The values above are taken from PubChem BioAssay AID1648 (Sanford-Burnham Center for Chemical Genomics, 2009).
